Data on four molecules can be found in BindingDB's records for doi:10.1016/s0891-0618(03)00032-2 (University of Michigan, 2003).

The target of test [1] is Kappa-type opioid receptor (Rattus norvegicus, UniProt P34975).
For test [2], the target named is Delta-type opioid receptor (Rattus norvegicus, UniProt P33533).
Another test deals with Mu-type opioid receptor (Rattus norvegicus, UniProt P33535).
The next test has as its target Nociceptin receptor (Rattus norvegicus, UniProt P35370).

Delta-type opioid receptor, sequence (P33533 whole entry): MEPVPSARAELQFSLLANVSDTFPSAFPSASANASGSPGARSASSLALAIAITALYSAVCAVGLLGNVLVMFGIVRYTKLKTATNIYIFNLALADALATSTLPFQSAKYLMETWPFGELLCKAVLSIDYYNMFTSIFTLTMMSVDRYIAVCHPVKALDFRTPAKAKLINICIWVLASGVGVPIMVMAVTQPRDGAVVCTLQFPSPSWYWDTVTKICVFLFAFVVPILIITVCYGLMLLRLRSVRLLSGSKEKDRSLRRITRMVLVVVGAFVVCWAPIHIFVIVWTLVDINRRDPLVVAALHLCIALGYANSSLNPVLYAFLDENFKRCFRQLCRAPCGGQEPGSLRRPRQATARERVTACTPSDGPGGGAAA
Kappa-type opioid receptor, sequence (P34975 whole entry): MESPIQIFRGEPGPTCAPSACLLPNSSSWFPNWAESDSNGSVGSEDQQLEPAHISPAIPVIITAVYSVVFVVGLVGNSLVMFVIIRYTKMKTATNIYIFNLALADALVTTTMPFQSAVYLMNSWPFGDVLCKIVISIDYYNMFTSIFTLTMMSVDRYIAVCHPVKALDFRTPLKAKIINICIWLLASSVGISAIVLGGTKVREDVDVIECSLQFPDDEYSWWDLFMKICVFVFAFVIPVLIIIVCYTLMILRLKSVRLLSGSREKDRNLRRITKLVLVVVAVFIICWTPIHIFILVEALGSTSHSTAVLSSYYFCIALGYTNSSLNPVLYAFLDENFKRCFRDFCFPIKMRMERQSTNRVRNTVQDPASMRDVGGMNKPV
Mu-type opioid receptor, sequence (P33535 whole entry): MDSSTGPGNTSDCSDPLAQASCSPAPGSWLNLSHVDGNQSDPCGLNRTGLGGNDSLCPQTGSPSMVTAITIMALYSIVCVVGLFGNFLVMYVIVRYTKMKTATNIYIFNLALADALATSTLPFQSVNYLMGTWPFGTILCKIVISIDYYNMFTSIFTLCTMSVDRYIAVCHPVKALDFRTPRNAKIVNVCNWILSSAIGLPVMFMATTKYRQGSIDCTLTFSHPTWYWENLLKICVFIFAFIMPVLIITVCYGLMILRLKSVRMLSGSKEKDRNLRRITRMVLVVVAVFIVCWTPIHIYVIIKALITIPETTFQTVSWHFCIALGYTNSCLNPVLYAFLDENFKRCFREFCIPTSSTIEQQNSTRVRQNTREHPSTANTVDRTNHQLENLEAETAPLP
Nociceptin receptor, sequence (P35370 whole entry): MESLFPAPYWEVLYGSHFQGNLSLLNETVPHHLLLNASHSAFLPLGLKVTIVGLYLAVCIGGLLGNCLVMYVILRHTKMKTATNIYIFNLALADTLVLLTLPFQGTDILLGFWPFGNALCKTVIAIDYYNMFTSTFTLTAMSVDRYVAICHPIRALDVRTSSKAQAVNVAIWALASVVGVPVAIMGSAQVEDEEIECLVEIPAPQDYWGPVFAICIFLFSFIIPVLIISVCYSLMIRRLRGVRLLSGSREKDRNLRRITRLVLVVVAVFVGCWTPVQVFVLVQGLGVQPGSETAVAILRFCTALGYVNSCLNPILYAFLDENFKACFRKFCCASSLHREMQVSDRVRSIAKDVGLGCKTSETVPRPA

In general, Ki refers to the equilibrium dissociation constant of an inhibitor or competing ligand from its target. A lower Ki goes with higher affinity. As to `CCC12CCN(CC3CC3)C(C(=O)c3ccc(O)cc31)C2C` (centres undefined) [EKC], the Ki came out at 0.00212 µM in test [1], 0.00246 µM in test [2] and 0.00193 µM on Mu-type opioid receptor.
In the case of H-FSEFMRQYLVLSMQSSQ-OH [OFQ II 1-17], the Ki (in test [1]; at Nociceptin receptor; in test [2]; at Mu-type opioid receptor) was > 10 µM throughout.
For `CC(C)C[C@H](NC(=O)[C@H](CCCCN)NC(=O)[C@H](CCCN=C(N)N)NC(=O)[C@H](C)NC(=O)[C@H](CO)NC(=O)[C@H](CCCCN)NC(=O)[C@H](CCCN=C(N)N)NC(=O)[C@H](C)NC(=O)CNC(=O)[C@@H](NC(=O)[C@H](Cc1ccccc1)NC(=O)CNC(=O)CNC(=O)[C@@H](N)Cc1ccccc1)[C@@H](C)O)C(=O)N[C@@H](C)C(=O)N[C@@H](CC(N)=O)C(=O)N[C@@H](CCC(N)=O)C(=O)O` [OFQ 1-17], the inhibition constant (Ki) (in test [1]; in test [2]; on Mu-type opioid receptor) was > 10 µM in each case.
On to “H-FSEFMRQYLVLSMQSSQRRRTLHQNGNV-NH2 [NSC_0]”, for which the Ki (in test [1]; at Nociceptin receptor; in test [2]; on Mu-type opioid receptor) was > 10 µM each time.
